Source: patent US8883203B2, “Solid oral dosage form containing an enhancer” (Merrion Research III Limited, priority 2006, dated 2014)

Key:
Caco-2 monolayers = experiment: TEER of Caco-2 monolayers with MCFA sodium salts; type: cell-based; settings: sodium salts with 3H-TRH, over 2 hours, concentrations of Table 1
Protocol: Cell Culture: Caco-2 cells were cultured in Dulbecco's Modified Eagles Medium (DMEM) 4.5 g/L glucose supplemented with 1% (v/v) non-essential amino acids; 10% fetal calf serum and 1% penicillin/streptomycin. […] The cells were grown and expanded in standard tissue culture flasks and were passaged once they attained 100% confluence. The Caco-2 cells were then seeded on polycarbonate filter inserts (Costar; 12 mm diameter, 0.4 μm pore size) at a density of 5×10^5 cells/cm^2 and incubated in six well culture plates with a medium change every second day. Confluent monolayers between day 20 and day 30 seeding on filters and at passages 30-40 were used throughout these studies.
The transport experiments were performed in Hank's Balanced Salt Solution (HBSS) containing 25 mM N[2-hydroxyethyl]-piperazine-N′-[2-ethanesulfonic acid] (HEPES) buffer, pH 7.4 at 37° C. Due to variations in solubilities, various concentrations of the different MCFA sodium salts and various apical buffers were used as shown in Table 1. In all cases the basolateral chamber contained regular HBSS+HEPES.
After removing the cell culture medium, the monolayers were placed in wells containing prewarmed HBSS (37° C.); 1 ml apically and 2 ml basolaterally. Monolayers were incubated at 37° C. for 30 mins. Then at time zero, apical HBSS was replaced with the relevant apical test solution containing the radiolabelled compounds with and without the enhancer compound. […] The plates were placed on an orbital shaker in an incubator (37° C.). Transport across the monolayers was followed by basolateral sampling (1 ml) at 30 min. intervals up to 120 mins. At each 30 min. interval each insert was transferred to a new well containing 2 ml fresh prewarmed HBSS. Apical stock radioactivity was determined by taking 10 μl samples at t=0 and t=120 mins. […] Mean values for ^3H-TRH concentrations were calculated for the apical and basolateral solutions at each time point.

[1] = Closed loop rat model, intraduodenal TRH with enhancer, serum TRH; type: in vivo, Male Wistar rats; settings: 500 μg or 1000 μg TRH with 35 mg enhancer, interduodenal bolus
Protocol: Male Wistar rats (weight range 250 g-350 g) were anaesthetized with ketamine hydrochloride/acepromazine. […] All intraduodenal dose volumes (for samples and control) were 1 ml/kg. The proximal end of the segment was ligated and the loop was sprayed with isotonic saline (37° C.) to provide moisture and then replaced in the abdominal cavity avoiding distension. The incision was closed with surgical clips. A group of animals were administered TRH in PBS (100 μg in 0.2 ml) by subcutaneous injection as a reference.

APTT = experiment: Closed-loop rat segment, intraileal USP heparin with enhancer, APTT response; type: in vivo; settings: USP heparin 1000 IU, enhancer 10 and 35 mg
Excerpt: APTT measurements were taken at various time points.

anti-factor Xa activity [2] = experiment: Closed-loop rat segment, intraileal USP heparin with enhancer, anti-factor Xa response; settings: USP heparin 1000 IU
Protocol: The procedure carried out in Example 1(a) above was repeated using USP heparin in place of TRH and dosing intraileally rather than intraduodenally. A mid-line incision was made in the abdomen and the distal end of the ileum located (about 10 cm proximal to the ileo-caecal junction). 7-9 cm of tissue was isolated and the distal end ligated, taking care to avoid damage to surrounding blood vessels. Heparin absorption as indicated by […] (APTT) response was measured by placing a drop of whole blood (freshly sampled from the tail artery) on the test cartridge of Biotrack 512 coagulation monitor. APTT measurements were taken at various time points.
Citrated blood samples were centrifuged at 3000 rpm for 15 mins. to obtain plasma for anti-factor Xa analysis. […] The control in each case is a solution of the same heparin concentration containing no enhancer.

anti-factor Xa activity [3] = experiment: Site of administration of LMWH with sodium caprate in dogs, anti-factor Xa; type: in vivo, beagle dogs; settings: 45,000 IU LMWH and 0.55 g sodium caprate, oral, intrajejunal, intracolonic
Excerpt: Four beagle dogs (10-15 Kg) were surgically fitted with catheters to the jejunum and colon respectively. […] 3,200 IU Fluxum™ SC was included in the study as a subcutaneous reference.

anti-factor Xa activity [4] = experiment: Intraduodenal LMWH with enhancers in rats (open loop), anti-factor Xa; type: in vivo, Male Wistar rats; settings: 1000 IU parnaparin sodium intraduodenally
[5] = cited from earlier work

CCCCCCCCCCCCCC(=O)[O-].[Na+] [Batch C14]
effect on TEER (Ωcm^2) compared to the control (Caco-2 monolayers): minimal reduction in TEER

CCCCCCCC(=O)[O-].[Na+] [NaC8, sodium caprylate]
serum levels of TRH over the control TRH solution [1]: significantly increases

CCCCCCCCCCCCCCCCCC(=O)[O-].[Na+] [Batch C18]
effect on TEER (Ωcm^2) compared to the control (Caco-2 monolayers): minimal reduction in TEER

CCCCCCCCCC(=O)[O-].[Na+] [NaC10, sodium caprate]
heparin absorption by APTT response compared to control heparin solution (APTT): significant increase in absorption | anti-factor Xa activity relative to control heparin solution (anti-factor Xa activity [2]; enhancer 10 mg): significant increase in anti-factor Xa activity | anti-factor Xa activity relative to control heparin solution (anti-factor Xa activity [2]; enhancer 35 mg): significant increase in anti-factor Xa activity | serum levels of TRH over the control TRH solution [1]: significantly increases | effect on TEER (Ωcm^2) compared to the control (Caco-2 monolayers): minimal reduction in TEER

parnaparin sodium [LMWH]
intestinal absorption of LMWH versus absorption from the stomach (anti-factor Xa activity [3]): considerably higher | systemic delivery of LMWH in the absence of enhancer (anti-factor Xa activity [4]): relatively poor

NCCCC(O)(P(=O)(O)O)P(=O)(O)O [alendronate, Alendronate monosodium trihydrate]
further share of the dose absorbed excreted in the urine ([5]; over the next 64 hours): 5% | share of the dose absorbed excreted in the urine ([5]; within 8 hours, oral conventional forms): 40%

CCCCCCCCCCCC(=O)[O-].[Na+] [Batch C12, sodium laurate]
effect on TEER (Ωcm^2) compared to the control (Caco-2 monolayers): some cell damage (reduction in TEER)
